Tests used:
L1210 cell = conditions: Tetrahedron Letters, 31, 3271 (1990); cited from earlier work
[1] = tested on: Nippostrongylus brasiliensis; conditions: U.S. Pat. No. 4,959,370; J. Am. Chem. Soc., 112, 1 (1990); cited from earlier work
T cells = test: Growth inhibition against T cells in murine mixed lymphocyte reaction; assay type: cell-based; conditions: Mus musculus, T-cell; 72 hours at 37° C., [^3 H]Thymidine incorporation (added 18 hours before end); read-out: 50% inhibitory concentration (IC50) against the growth of T cells in murine mixed lymphocyte reaction
Procedure: Growth inhibition against T cells in murine mixed lymphocyte reaction
Lymph node was aseptically excised from a B10.BR mouse (Japan SLC Inc.) with a solution comprising Hanks' […] salt solution (HBSS, Gibco) and 2.5% fetal calf serum (FCS, Gibco) (hereinafter referred to as HBSS-FCS) and resuspended into a culture medium (RPMI 1640, Nissui) containing 10% fetal calf serum (FCS, Gibco), 1% 200 mM L-Gultamine (Gibco), 1% Penicillin-Streptoymycin liquid (Gibco), 5% NCTC-109 (Gibco), 1% 1M HEPES (Gibco), 7.5% NaHCO3 (SIGMA) and 0.1% 50 mM 2-mercaptoethanol (Nakarai) (hereinafter referred to as RPMI 1640-FCS) to prepared a single cell suspension to give a density of 3×10^6 cells/ml. […]
[^3 H]Thymidine was added to the wells in an amount of 1.0 μCi/well 18 hours before the end of each incubation. […] A toluene scintillator was added to the cells, and the amount of [^3 H]Thymidine radioactivity incorporated into the cells was determined using a liquid scintillation counter. The T cell growth inhibition rate was calculated according to the following equation. […]
C: Amount of [^3 H]Thymidine radioactivity incorporated into the mixed cell suspension
T: Amount of [^3 H]Thymidine radioactivity incorporated into the LK6-A-treated mixed cell suspension
A: Amount of [^3 H]Thymidine radioactivity incorporated into only the B10.BR murine lymph node cells. […]

Solubility = assay type: physicochemical
reverse transcriptase = conditions: U.S. Pat. No. 4,959,370; J. Am. Chem. Soc., 112, 1 (1990); cited from earlier work

Q: What does the source list for plakinidine B?
A: cytotoxic activity against the L1210 cell (L1210 cell): cytotoxic activity; activity against a parasite Nippostrongylus brasiliensis [1]: activity

Q: For `CO/C=C/C(=O)c1cc2c3c(c(N)cc(NC(C)=O)c3n1)N=C2` [LK6-A], which IC50 (T cells) is on record?
A: 9 nM

Q: And the Solubility (Solubility; chloroform)?
A: sparingly soluble

Q: What about the Solubility (Solubility; dimethylsulfoxide (DMSO)) of the same compound?
A: Soluble

Q: What about the Solubility (Solubility; hexane) of the same compound?
A: insoluble

Q: And the Solubility (Solubility; methanol)?
A: sparingly soluble

Q: What about the Solubility (Solubility; water) of the same compound?
A: sparingly soluble

Q: With `CNc1c2ncc3c4ccccc4[nH]c(c4nccc(=O)c14)c23` [plakinidine C] as the compound, how does the “cytotoxic activity against the L1210 cell” value (L1210 cell) read?
A: cytotoxic activity

Q: With plakinidine A as the compound, how does the “cytotoxic activity against the L1210 cell” value (L1210 cell) read?
A: cytotoxic activity

Q: And the “reverse transcriptase inhibitory activity” value (reverse transcriptase)?
A: reverse transcriptase inhibitory activity

Q: And the “activity against a parasite Nippostrongylus brasiliensis” value [1]?
A: activity

From US5843955A, “Compound LK6-A” (Kyowa Hakko Kogyo Co., Ltd., priority 1995, dated 1998)
